Assay results: patent US8466162B2, “5-alkynyl-pyridines” (Boehringer Ingelheim International GmbH, priority 2011, dated 2013)
pEC50, pIC50: −log10 of the molar value.

Experiments:
[1] = biological target: T1, PI3Kalpha (Homo sapiens, UniProt P42336); experiment: Inhibition of PI3Kalpha-induced PIP-2 phosphorylation (filter-binding assay, 33P-ATP); assay type: biochemical; details: PI3 Kinase alpha (p85alpha/His-p110alpha), 1 μM ATP; read-out: IC50 PI3Kα
T1 construct: His (N); made in house; host or cells: SF9 insect cells (baculovirus co-infection)

[2] = system: H460 cells; experiment: alamarBlue H460 cell assay (antiproliferative/cytotoxicity); assay type: cell-based; details: NCI-H460; H460 human lung carcinoma cells
Outline: (§1)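 Cells treated 5–6 days at 37 °C with compound, 10 μM top final concentration, 1:3 steps over 10 dilutions, in duplicate. alamarBlue then added for 8 h; fluorescence read at ex 530–560/em 590 nm, medium blank subtracted, EC50 fitted.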

[3] = system: MB453 cells; experiment: alamarBlue MB453 cell assay (antiproliferative/cytotoxicity); assay type: cell-based; details: Homo sapiens; MDA MB 453 breast cancer cell line
Outline: as §1

[4] = system: U87 cells; experiment: alamarBlue U87 cell assay (antiproliferative/cytotoxicity); assay type: cell-based; details: U-87MG human glioblastoma cells
Outline: as §1

[5] = system: MCF7 cells; experiment: alamarBlue MCF7 cell assay (antiproliferative/cytotoxicity); assay type: cell-based; details: MCF7 human breast cancer cell line
Outline: as §1

[6] = system: BT474 cells; experiment: alamarBlue BT474 cell assay (antiproliferative/cytotoxicity); assay type: cell-based; details: BT-474 human breast cancer cell line, 5-6 days incubation
Outline: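 Read-out: alamarBlue reduction by metabolically active cells, fluorescence ex 530-560 nm/em 590 nm, measured 8 h after dye addition at 37° C. Cells had been exposed to compound for 5-6 days over a 10-point 1:3 series starting at 10 μM final. EC50 derived after medium-blank subtraction.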

T1 sequence (P27986 whole entry): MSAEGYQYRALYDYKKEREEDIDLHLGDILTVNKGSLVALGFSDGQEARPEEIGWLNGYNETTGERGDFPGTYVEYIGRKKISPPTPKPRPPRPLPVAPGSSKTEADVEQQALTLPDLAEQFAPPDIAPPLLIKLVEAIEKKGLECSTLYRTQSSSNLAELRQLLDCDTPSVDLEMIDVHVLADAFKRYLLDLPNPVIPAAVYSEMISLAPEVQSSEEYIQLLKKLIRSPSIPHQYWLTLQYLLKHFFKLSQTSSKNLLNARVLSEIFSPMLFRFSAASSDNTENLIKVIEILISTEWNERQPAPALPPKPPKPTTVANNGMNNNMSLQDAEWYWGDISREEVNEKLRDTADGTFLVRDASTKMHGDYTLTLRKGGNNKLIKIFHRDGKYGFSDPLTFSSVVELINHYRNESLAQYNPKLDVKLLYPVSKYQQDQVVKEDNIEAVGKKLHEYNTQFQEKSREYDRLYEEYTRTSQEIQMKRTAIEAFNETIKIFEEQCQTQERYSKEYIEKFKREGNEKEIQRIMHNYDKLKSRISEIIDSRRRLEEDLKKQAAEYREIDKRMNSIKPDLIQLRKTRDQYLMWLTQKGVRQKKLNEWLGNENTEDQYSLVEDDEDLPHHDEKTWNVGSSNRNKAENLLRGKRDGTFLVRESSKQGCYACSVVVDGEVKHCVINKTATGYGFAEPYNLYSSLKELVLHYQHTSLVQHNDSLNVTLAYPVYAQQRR
T1 sequence (P42336 whole entry): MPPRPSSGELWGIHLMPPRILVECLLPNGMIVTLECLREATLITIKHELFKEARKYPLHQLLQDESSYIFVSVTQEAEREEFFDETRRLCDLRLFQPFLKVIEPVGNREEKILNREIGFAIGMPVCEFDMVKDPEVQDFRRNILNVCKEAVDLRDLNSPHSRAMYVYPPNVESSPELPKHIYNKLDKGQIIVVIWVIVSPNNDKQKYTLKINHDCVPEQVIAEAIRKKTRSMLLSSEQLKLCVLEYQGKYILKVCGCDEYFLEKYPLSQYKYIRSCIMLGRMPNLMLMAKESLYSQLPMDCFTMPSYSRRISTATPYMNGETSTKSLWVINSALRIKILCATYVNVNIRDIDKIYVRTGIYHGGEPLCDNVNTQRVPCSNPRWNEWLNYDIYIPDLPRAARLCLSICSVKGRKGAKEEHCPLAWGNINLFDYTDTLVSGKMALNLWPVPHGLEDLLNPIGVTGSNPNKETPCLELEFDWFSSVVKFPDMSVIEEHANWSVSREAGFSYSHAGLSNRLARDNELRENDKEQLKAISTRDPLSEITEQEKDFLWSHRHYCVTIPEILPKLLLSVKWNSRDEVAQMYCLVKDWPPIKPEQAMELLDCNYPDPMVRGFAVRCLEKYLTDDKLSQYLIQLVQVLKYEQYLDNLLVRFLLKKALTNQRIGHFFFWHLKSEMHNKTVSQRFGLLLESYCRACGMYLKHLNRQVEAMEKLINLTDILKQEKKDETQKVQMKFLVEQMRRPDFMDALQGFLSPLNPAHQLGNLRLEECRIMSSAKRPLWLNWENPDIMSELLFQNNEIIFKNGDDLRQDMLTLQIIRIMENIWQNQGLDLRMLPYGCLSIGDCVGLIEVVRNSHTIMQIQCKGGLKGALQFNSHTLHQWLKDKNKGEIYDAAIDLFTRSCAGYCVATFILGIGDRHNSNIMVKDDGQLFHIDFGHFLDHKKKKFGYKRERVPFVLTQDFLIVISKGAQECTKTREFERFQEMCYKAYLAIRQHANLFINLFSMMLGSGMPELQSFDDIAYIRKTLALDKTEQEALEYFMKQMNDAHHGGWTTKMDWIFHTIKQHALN

SMILES	pIC50 [1]	pEC50 [2]	pEC50 [3]	pEC50 [4]	pEC50 [5]	pEC50 [6]
CCc1ncnc(-c2ccnc(C)c2)c1C#Cc1cnc(C)c(NS(=O)(=O)c2ccc(C)cc2)c1 [Example 86, N-{5-[4-Ethyl-6-(2-methyl-pyridin-4-yl)-pyrimidin-5-ylethynyl]-2-methyl-pyridin-3-yl}-4-methyl-benzenesulfonamide]	9.00	6.68	6.31	6.16	7.25	6.52
CCc1ncnc(-c2ccnc(C)c2)c1C#Cc1cnc(C)c(NS(=O)(=O)c2ccc(OC)cc2)c1 [Example 87, N-{5-[4-Ethyl-6-(2-methyl-pyridin-4-yl)-pyrimidin-5-ylethynyl]-2-methyl-pyridin-3-yl}-4-methoxy-benzenesulfonamide]	8.30	6.62	6.30	6.05	6.43	6.42
CCc1ccccc1S(=O)(=O)Nc1cc(C#Cc2c(CC)ncnc2-c2ccnc(C)c2)cnc1C [Example 88, 2-Ethyl-N-{5-[4-ethyl-6-(2-methyl-pyridin-4-yl)-pyrimidin-5-ylethynyl]-2-methyl-pyridin-3-yl}-benzenesulfonamide]	8.05	6.85	6.48	6.15	7.19	6.76
CCc1ncnc(-c2ccnc(C)c2)c1C#Cc1cnc(C)c(NS(=O)(=O)c2ccccc2C)c1 [Example 89, N-{5-[4-Ethyl-6-(2-methyl-pyridin-4-yl)-pyrimidin-5-ylethynyl]-2-methyl-pyridin-3-yl}-2-methyl-benzenesulfonamide]	9.06	6.50	6.28	6.08	7.30	6.70

Continued, in another order:

pIC50 [1]	SMILES	pEC50 [2]	pEC50 [3]	pEC50 [4]	pEC50 [5]	pEC50 [6]
9.41	CCc1ncnc(-c2ccnc(C)c2)c1C#Cc1cnc(C)c(NS(=O)(=O)c2cccnc2)c1 [Example 91, Pyridine-3-sulfonic acid {5-[4-ethyl-6-(2-methyl-pyridin-4-yl)-pyrimidin-5-ylethynyl]-2-methyl-pyridin-3-yl}-amide]	6.10	6.79	6.32	6.86	6.69
8.15	CCc1ncnc(-c2ccnc(C)c2)c1C#Cc1cnc(C)c(NS(=O)(=O)c2ccc(C)cc2C)c1 [Example 92, N-{5-[4-Ethyl-6-(2-methyl-pyridin-4-yl)-pyrimidin-5-ylethynyl]-2-methyl-pyridin-3-yl}-2,4-dimethyl-benzenesulfonamide]	6.44	6.01	6.01	6.64	6.32
9.00	CCc1ncnc(-c2ccnc(C)c2)c1C#Cc1cnc(C)c(NS(=O)(=O)c2cn(C)cn2)c1 [Example 93, 1-Methyl-1H-imidazole-4-sulfonic acid {5-[4-ethyl-6-(2-methyl-pyridin-4-yl)-pyrimidin-5-ylethynyl]-2-methyl-pyridin-3-yl}-amide]	6.53	6.83	6.25	6.71	6.39
9.00	CCc1ncnc(-c2ccnc(C)c2)c1C#Cc1cnc(C)c(NS(=O)(=O)c2ccc(CNC(C)=O)cc2)c1 [Example 94, N-(4-{5-[4-Ethyl-6-(2-methyl-pyridin-4-yl)-pyrimidin-5-ylethynyl]-2-methyl-pyridin-3-ylsulfamoyl}-benzyl)-acetamide]	5.59	6.29	5.63	6.24	6.19
8.70	Cc1cc(-c2ncnc(C)c2C#Cc2cncc(NS(C)(=O)=O)c2)ccn1 [Example 95, N-{5-[4-Methyl-6-(2-methyl-pyridin-4-yl)-pyrimidin-5-ylethynyl]-pyridin-3-yl}-methanesulfonamide]	5.69	6.32	6.41	6.39	5.78
